Measurements: US20260056204A1, “COMPOSITIONS AND METHODS FOR CHEMOPROTEOMIC REAGENT SYNTHESIS AND APPLICATION” (The Regents of the University of California, priority 2023, published 2026)

Test system: cysteines in HEK293T cell lysates
Assay: competitive ABPP workflow with DADPS capture reagents
Type: biochemical
Excerpt: To obtain an isotopically enriched DADPS capture reagent, the synthesis and application of heavy L-valine (^13C5 ^15N)— containing reagent NBIV-010 was focused on, as the relatively large +6 Da mass difference is ideal for MS1-based quantification. Further motivating the isotopic reagent design, a +6-mass difference is used in isoTOP-ABPP and isoDTB reagents together with the previously reported heavy and light azido-biotin reagents, which was envisioned could facilitate head-to-head comparisons. Using the same synthetic strategy, heavy reagent NBIV-010 was obtained in 58% yield. […] These reagents in a were further validated in a competitive ABPP workflow. Using HEK293T cell lysates, samples were subjected to either vehicle, DMSO, or 500 μM KB02. Upon labeling with IAA and clicking the samples with either heavy or light DADPS probe (NBIV-010 or NBIV-009, respectively; FIG. 4B) or heavy or light biotin azide, the samples were subjected to SP3 cleanup. After enrichment with either streptavidin resin, for DADPS labeled peptides, or NeutrAvidin resin, for biotin azide labeled peptides, the peptides were cleaved or eluted off resin, respectively, and analyzed by LC-MS/MS. […]

Structure (SMILES): COc1ccc2c(c1)CCCN2C(=O)CCl [KB02]
- cysteines with ratios>2 shared by DADPS and biotin azide datasets (high confidence KB02-labeled sites) (500 μM KB02): 163
- cysteines found in peptides with Log2 MS1 extracted ion chromatograph area ratios>2 (cysteines modified by KB02; ligandable cysteines) (500 μM KB02 vs DMSO, heavy/light DADPS probes NBIV-010/NBIV-009, three biological replicates): 404
